Source: BindingDB's records for doi:10.1016/j.bmc.2008.09.053 (Chiba University, 2008)

Molecular target: T1, Zinc finger protein GLI1 (Homo sapiens, UniProt P08151)
T1 sequence (P08151 whole entry): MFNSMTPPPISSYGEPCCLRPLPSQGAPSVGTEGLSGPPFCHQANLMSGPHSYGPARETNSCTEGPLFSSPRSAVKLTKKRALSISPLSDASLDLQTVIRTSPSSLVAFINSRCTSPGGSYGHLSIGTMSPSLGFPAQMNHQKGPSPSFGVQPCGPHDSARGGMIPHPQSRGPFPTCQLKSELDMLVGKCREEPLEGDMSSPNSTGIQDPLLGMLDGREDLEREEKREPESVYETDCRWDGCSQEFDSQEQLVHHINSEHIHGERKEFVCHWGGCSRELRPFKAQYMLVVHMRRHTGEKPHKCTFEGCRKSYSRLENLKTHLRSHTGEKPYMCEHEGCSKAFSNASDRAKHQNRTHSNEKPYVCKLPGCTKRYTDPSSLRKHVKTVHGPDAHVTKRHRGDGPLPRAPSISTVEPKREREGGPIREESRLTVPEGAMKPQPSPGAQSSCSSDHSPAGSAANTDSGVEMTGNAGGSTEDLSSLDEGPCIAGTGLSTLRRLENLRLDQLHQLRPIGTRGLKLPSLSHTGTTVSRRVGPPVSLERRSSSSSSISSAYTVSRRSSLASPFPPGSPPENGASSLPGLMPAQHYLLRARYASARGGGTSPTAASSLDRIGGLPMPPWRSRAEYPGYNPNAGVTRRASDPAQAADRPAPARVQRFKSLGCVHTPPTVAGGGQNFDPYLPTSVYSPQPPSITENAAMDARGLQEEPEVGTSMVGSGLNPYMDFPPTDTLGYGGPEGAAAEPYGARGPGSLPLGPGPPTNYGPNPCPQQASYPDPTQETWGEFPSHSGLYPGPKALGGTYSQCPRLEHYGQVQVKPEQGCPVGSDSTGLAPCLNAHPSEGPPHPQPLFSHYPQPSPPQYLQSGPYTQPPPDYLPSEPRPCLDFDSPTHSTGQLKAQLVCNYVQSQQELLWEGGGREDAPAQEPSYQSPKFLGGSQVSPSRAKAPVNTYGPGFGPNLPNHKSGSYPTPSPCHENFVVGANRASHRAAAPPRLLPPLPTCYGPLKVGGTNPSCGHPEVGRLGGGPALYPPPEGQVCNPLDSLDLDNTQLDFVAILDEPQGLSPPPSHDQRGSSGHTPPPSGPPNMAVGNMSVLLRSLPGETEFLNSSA
Experiment: Inhibition of GLI1-mediated transcriptional activity in human HaCaT cells by luciferase based reporter gene assay

C=C(C)[C@@H]1CC[C@]2(C(=O)O)CC[C@]3(C)[C@H](CC[C@@H]4[C@@]5(C)[C@@H](C(=O)O)[C@H](O)C(C)(C)[C@@H]5CC[C@]43C)[C@@H]12 showed an IC50 of over 200 µM.
With C=C(C)[C@@H]1CC[C@]2(C(=O)O)CC[C@]3(C)[C@H](CC[C@@H]4[C@@]5(C)[C@H](CO)[C@@H](O)C(C)(C)[C@@H]5CC[C@]43C)[C@@H]12 [ceanothanolic acid] the IC50 was 133 µM.
